Laboratory results from the supplement of paper PMC10307832.

What was measured:
Assay in all cases: relative viability (nuclei count vs DMSO), 5 days (fraction); higher = more cells survive
[1] = system: BEN
How it was run: (§1)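 Five library-drug doses in √10 steps were combined with a fixed anchor-drug dose, or a single drug was given alone, by pin tool to lung cancer cell lines in 1536-well plates the day after seeding. Nuclei were stained and counted after 5 days. Relative viability is the nuclei count in treated wells over that in vehicle wells, taken as the median of duplicate plates.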

[2] = system: CAL-12T
How it was run: as §1

[3] = system: COR-L23
How it was run: as §1

[4] = system: HCC-44
How it was run: as §1

[5] = system: LU99A
How it was run: as §1

[6] = system: LXF-289
How it was run: as §1

[7] = system: NCI-H1355
How it was run: as §1

[8] = system: NCI-H1437
How it was run: as §1

[9] = system: NCI-H1650
How it was run: as §1

[10] = system: NCI-H1651
How it was run: as §1

[11] = system: NCI-H1666
How it was run: as §1

[12] = system: NCI-H1755
How it was run: as §1

[13] = system: NCI-H1792
How it was run: as §1

[14] = system: NCI-H1993
How it was run: as §1

[15] = system: NCI-H2085
How it was run: as §1

[16] = system: NCI-H2087
How it was run: as §1

[17] = system: NCI-H2170
How it was run: as §1

[18] = system: NCI-H460
How it was run: as §1

[19] = system: NCI-H520
How it was run: as §1

[20] = system: PC-14
How it was run: as §1

[21] = system: SK-MES-1
How it was run: as §1

CN1CCN(CCOc2cc(OC3CCOCC3)c3c(Nc4c(Cl)ccc5c4OCO5)ncnc3c2)CC1 [Saracatinib] + O=C(c1cc(Cc2n[nH]c(=O)c3ccccc23)ccc1F)N1CCN(C(=O)C2CC2)CC1 [Olaparib] (partner 8 µM)
relative viability ([1]; first compound 0.02 µM): 1.15 | relative viability ([1]; first compound 0.2 µM): 0.922 | relative viability ([1]; first compound 0.6325 µM): 1.15 | relative viability ([1]; first compound 2 µM): 0.794 | relative viability ([2]; first compound 0.02 µM): 0.787 | relative viability ([2]; first compound 0.2 µM): 0.682 | relative viability ([2]; first compound 0.6325 µM): 0.825 | relative viability ([2]; first compound 2 µM): 0.701 | relative viability ([3]; first compound 0.02 µM): 0.447 | relative viability ([3]; first compound 0.2 µM): 0.319 | relative viability ([3]; first compound 0.6325 µM): 0.346 | relative viability ([3]; first compound 2 µM): 0.312 | relative viability ([4]; first compound 0.02 µM): 0.979 | relative viability ([4]; first compound 0.2 µM): 0.863 | relative viability ([4]; first compound 0.6325 µM): 0.97 | relative viability ([4]; first compound 2 µM): 0.976 | relative viability ([5]; first compound 0.02 µM): 0.278 | relative viability ([5]; first compound 0.2 µM): 0.194 | relative viability ([5]; first compound 0.6325 µM): 0.282 | relative viability ([5]; first compound 2 µM): 0.256 | relative viability ([6]; first compound 0.02 µM): 1.07 | relative viability ([6]; first compound 0.2 µM): 0.916 | relative viability ([6]; first compound 0.6325 µM): 1.09 | relative viability ([6]; first compound 2 µM): 1.04 | relative viability ([7]; first compound 0.02 µM): 0.796 | relative viability ([7]; first compound 0.2 µM): 0.692 | relative viability ([7]; first compound 0.6325 µM): 0.817 | relative viability ([7]; first compound 2 µM): 0.706 | relative viability ([8]; first compound 0.02 µM): 0.68 | relative viability ([8]; first compound 0.2 µM): 0.648 | relative viability ([8]; first compound 0.6325 µM): 0.618 | relative viability ([8]; first compound 2 µM): 0.658 | relative viability ([9]; first compound 0.02 µM): 0.784 | relative viability ([9]; first compound 0.2 µM): 0.636 | relative viability ([9]; first compound 0.6325 µM): 0.624 | relative viability ([9]; first compound 2 µM): 0.569 | relative viability ([10]; first compound 0.02 µM): 0.191 | relative viability ([10]; first compound 0.2 µM): 0.16 | relative viability ([10]; first compound 0.6325 µM): 0.162 | relative viability ([10]; first compound 2 µM): 0.165 | relative viability ([11]; first compound 0.02 µM): 0.722 | relative viability ([11]; first compound 0.2 µM): 0.696 | relative viability ([11]; first compound 0.6325 µM): 0.974 | relative viability ([11]; first compound 2 µM): 0.995 | relative viability ([12]; first compound 0.02 µM): 0.876 | relative viability ([12]; first compound 0.2 µM): 0.751 | relative viability ([12]; first compound 0.6325 µM): 0.872 | relative viability ([12]; first compound 2 µM): 0.786 | relative viability ([13]; first compound 0.02 µM): 0.537 | relative viability ([13]; first compound 0.2 µM): 0.352 | relative viability ([13]; first compound 0.6325 µM): 0.644 | relative viability ([13]; first compound 2 µM): 0.385 | relative viability ([14]; first compound 0.02 µM): 1.03 | relative viability ([14]; first compound 0.2 µM): 1.02 | relative viability ([14]; first compound 0.6325 µM): 1.01 | relative viability ([14]; first compound 2 µM): 0.989 | relative viability ([15]; first compound 0.02 µM): 0.802 | relative viability ([15]; first compound 0.2 µM): 0.602 | relative viability ([15]; first compound 0.6325 µM): 0.821 | relative viability ([15]; first compound 2 µM): 0.863 | relative viability ([16]; first compound 0.02 µM): 0.485 | relative viability ([16]; first compound 0.2 µM): 0.449 | relative viability ([16]; first compound 0.6325 µM): 0.552 | relative viability ([16]; first compound 2 µM): 0.515 | relative viability ([17]; first compound 0.02 µM): 0.597 | relative viability ([17]; first compound 0.2 µM): 0.539 | relative viability ([17]; first compound 0.6325 µM): 0.558 | relative viability ([17]; first compound 2 µM): 0.524 | relative viability ([18]; first compound 0.02 µM): 0.416 | relative viability ([18]; first compound 0.2 µM): 0.285 | relative viability ([18]; first compound 0.6325 µM): 0.423 | relative viability ([18]; first compound 2 µM): 0.409 | relative viability ([19]; first compound 0.02 µM): 0.354 | relative viability ([19]; first compound 0.2 µM): 0.327 | relative viability ([19]; first compound 0.6325 µM): 0.289 | relative viability ([19]; first compound 2 µM): 0.243 | relative viability ([20]; first compound 0.02 µM): 0.263 | relative viability ([20]; first compound 0.2 µM): 0.261 | relative viability ([20]; first compound 0.6325 µM): 0.201 | relative viability ([20]; first compound 2 µM): 0.117 | relative viability ([21]; first compound 0.02 µM): 0.703 | relative viability ([21]; first compound 0.2 µM): 0.69 | relative viability ([21]; first compound 0.6325 µM): 0.49 | relative viability ([21]; first compound 2 µM): 0.299
